According to patent publication US8859589B2 (priority 2008, dated 2014):
“And” between values parts separate entries of the source, which are not always exact repeats. Identical values can stand only once. Like-named read-outs stand apart in the source and are kept apart here.

Tests used:
[1] = system: wild-type VV (Vaccinia Virus); type: cell-based
[2] = in vitro
[3] = system: thymidine kinase deficient mutant strain of VV; type: cell-based, Vaccinia Virus
[4] = system: CV Cowpox Virus; type: cell-based
[5] = in vitro; remark: listed apart in the source
[6] = system: dUTPase deficient mutant strain of VV; type: cell-based, Vaccinia Virus
[7] = system: VV or CV; parameters: species or system mice; settings: mouse, in vivo
[8] = system: VV; parameters: species or system mice; settings: mouse, in vivo
[9] = system: Cowpox Virus-BR; parameters: species or system BALB/c mice; settings: mouse, in vivo
[10] = system: CV; parameters: species or system mice; settings: mouse, in vivo

In the case of `O=c1[nH]c(=O)n([C@H]2C[C@H](O)[C@@H](CO)S2)cc1I` [5-iodo-4′-thio-2′-deoxyuridine], the “effective concentration against wild-type VV” value [1] is reported as “less than 1.0 μM”, the CC50 [2] is reported as over 100 µM and the “antiviral activity against mutant strain of VV” value [3] is reported as “retained its antiviral activity”. The “effective concentration against CV” value [4] was “less than 1.0 μM”, the CC50 [5] was over 100 µM and the “antiviral activity against mutant strain of VV” value [6] was “retained its antiviral activity”. For the same compound, the reduction in mortality [7] was “significant reduction in mortality”, the protection from mortality [8] was “completely protected” and the “MDD ± STDEV (Mean Day of Death)” value [9] was 18.0 and 16.0 ± 2.8 and 14.0 and 14.0 ± 5.7. The “Mortality Number” value [9] was 0/15 and 0/13 and 1/15 and 2/15 and the protection from mortality [10] was “complete protection from mortality”.
For `Nc1ccn(C[C@@H](CO)OCP(=O)(O)O)c(=O)n1` [Cidofovir, reference compound], the “Mortality Number” value [9] was 0/15 and 0/14 and the “Mortality Percent” value [9] was 0%.
